# From publication PMC4232301 (Organic & biomolecular chemistry, 2012)
# Target: [KS6AT6] (DEBS module 6 ketosynthase-acyltransferase didomain) (Saccharopolyspora erythraea, UniProt Q03133)
# Test: LC-MS of tryptic digest, methylmalonyl transfer to holo-ACP2
# Assay type: biochemical
# Details: acyl acceptor purified holo-ACP2; AT domain; 30 min
# [KS6AT6] (DEBS module 6 ketosynthase-acyltransferase didomain), sequence (Q03133 1475-2340 limits assumed): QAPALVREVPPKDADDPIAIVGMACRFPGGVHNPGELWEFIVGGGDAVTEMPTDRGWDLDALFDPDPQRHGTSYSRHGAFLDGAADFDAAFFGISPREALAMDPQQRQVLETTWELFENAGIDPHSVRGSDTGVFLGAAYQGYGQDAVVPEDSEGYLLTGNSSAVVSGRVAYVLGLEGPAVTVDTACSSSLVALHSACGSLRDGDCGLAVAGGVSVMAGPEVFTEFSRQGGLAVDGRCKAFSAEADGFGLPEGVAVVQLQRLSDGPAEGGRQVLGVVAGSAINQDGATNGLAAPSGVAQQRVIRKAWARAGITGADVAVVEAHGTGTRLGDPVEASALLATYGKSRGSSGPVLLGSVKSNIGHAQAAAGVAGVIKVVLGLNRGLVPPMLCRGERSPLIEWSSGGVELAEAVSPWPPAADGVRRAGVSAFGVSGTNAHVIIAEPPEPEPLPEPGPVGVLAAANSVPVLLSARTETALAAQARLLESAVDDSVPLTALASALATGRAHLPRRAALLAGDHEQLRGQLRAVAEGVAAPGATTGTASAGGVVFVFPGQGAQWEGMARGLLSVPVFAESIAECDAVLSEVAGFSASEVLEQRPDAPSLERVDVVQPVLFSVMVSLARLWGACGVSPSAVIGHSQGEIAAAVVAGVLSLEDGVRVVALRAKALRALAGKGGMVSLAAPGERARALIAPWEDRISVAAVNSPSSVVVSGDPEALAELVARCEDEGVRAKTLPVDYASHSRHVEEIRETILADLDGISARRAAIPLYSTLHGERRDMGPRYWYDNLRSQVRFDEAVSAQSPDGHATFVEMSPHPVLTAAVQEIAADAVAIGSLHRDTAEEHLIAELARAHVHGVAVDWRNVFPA
smiles,measurement,value
CC(C(=O)O)C(=O)SCCNC(=O)CCNC(=O)[C@H](O)C(C)(C)COP(=O)(O)OP(=O)(O)OC[C@H]1O[C@@H](n2cnc3c(N)ncnc32)[C@H](O)[C@@H]1OP(=O)(O)O (stereo partly shown) [methylmalonyl-CoA],"LC-MS of tryptic digest, methylmalonyl transfer to holo-ACP2",purified ACP remains competent for AT-ACP methylmalonate transfer
